Laboratory results from paper PMC3912202 (2014).

What was measured:
[1] = tested on: double stranded polyriboadenylic acid (ds poly-A) (RNA, polymer) A; assay: circular dichroism; conditions: 10 mM citrate-phosphate buffer, pH 4.5, 20°C; 100.0 µM ds poly-A, up to 55.60 µM ST
[2] = tested on: double stranded polyriboadenylic acid (ds poly-A) (RNA, polymer) A; assay: absorption titration; conditions: 10 mM citrate-phosphate buffer, pH 4.5, 20°C; up to P/D 100 (301.09 µM ds poly-A, 3.05 µM ST)
[3] = tested on: double stranded polyriboadenylic acid (ds poly-A) (RNA, polymer) A; assay: fluorescence titration; conditions: 10 mM citrate-phosphate buffer, pH 4.5, 20°C; up to P/D 100 (510.50 µM ds poly-A, 5.0 µM ST)
[4] = tested on: double stranded polyriboadenylic acid (ds poly-A) (RNA, polymer) A; assay: thermal melting profile (CD); conditions: 10 mM citrate-phosphate buffer, pH 4.5; 100.0 µM ds poly-A, D/P 0.53; no change, transition around 74°C
[5] = tested on: single stranded polyriboadenylic acid (ss poly-A) (RNA, polymer) A; assay: absorption titration, Scatchard, McGhee-von Hippel fit; conditions: 10 mM Na+; 10 mM citrate-phosphate buffer, pH 7.0, 20°C; intrinsic constant, per nucleotide; per base
[6] = tested on: single stranded polyriboadenylic acid (ss poly-A) (RNA, polymer) A; assay: fluorescence titration, Scatchard, McGhee-von Hippel fit; conditions: 10 mM Na+; 10 mM citrate-phosphate buffer, pH 7.0, 20°C; intrinsic constant, per nucleotide; per base

Cc1cc2nc3cc(C)c(N)cc3[n+](-c3ccccc3)c2cc1N
binding [1]: no
binding [2]: no
binding [3]: no
binding [4]: no
K′ [5]: 5.98±0.20 × 10^5 M^-1
K′ [6]: 6.15±0.20 × 10^5 M^-1
